Among the data in patent US11999727B2 (Tango Therapeutics, Inc., priority 2020, dated 2024) are IC50 and MTAP intact/deleted ratio values, retold here.

Where two headings read alike, the source gives them in different places.

The subject of assay [1] is HAP1 MTAP-deleted cell line. The experiment in a line: Viability assay, MTAP-deleted cell line. It is filed as cell-based. The note with it: Homo sapiens. The text has this: Table 1 additionally indicates IC50 values in a viability assay for the MTAP-deleted cell line (column 10), indicating the effect of treatment with compound on cell survival.
The test system of assay [2] is HAP1 MTAP-deleted cell line. Put plainly: SDMA in-cell western assay, HAP1 MTAP-deleted. It is filed as cell-based. The note with it: for IC50: Homo sapiens; for MTAP intact/deleted ratio: IC50 ratio HAP1 MTAP-intact vs HAP1 MTAP-deleted, SDMA in-cell western. Put shortly:
(§1)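 Readout: in-cell western detection of SDMA. Cells: HAP1 expressing endogenous MTAP and an MTAP-null HAP1 counterpart. Output: IC50.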

The test system of assay [3] is HAP1 MTAP-intact cell line. The experiment in a line: SDMA in-cell western assay, HAP1 MTAP-intact. It is filed as cell-based. The following applies: Homo sapiens. In outline: as §1
Assay [4] has as its target T1, PRMT5 (Homo sapiens, UniProt O14744).
T1 construct: purchased Viva (custom protein)
The experiment in a line: PRMT5 biochemical IC50 assay with MTA as cofactor.

Assay [5] concerns the target T1, PRMT5. The experiment in a line: PRMT5 biochemical IC50 assay with SAM as cofactor.
Assay [6] has as its target T1, PRMT5. Put plainly: PRMT5 biochemical IC50 assay with no cofactor. An excerpt:
Table 1 indicates IC50 values (μM) against PRMT5 for exemplary compounds in the presence of SAM as cofactor, with no cofactor, and with MTA as cofactor, respectively (columns 4-6). […] Ki values can be calculated from the IC50 values as described in the Examples section. As detailed in the Examples section, for the assay performed in the presence of SAM, IC50=Ki×1.5 (Ki=IC50/1.5).

Where [7] appears, read: HAP1, viability assay, MTAP-deleted cell line, read-out: HAP1 MTAP deleted viability.
The mark [8] stands for this setting: HAP1, SDMA in-cell western, HAP1 MTAP-deleted, read-out: HAP1 MTAP deleted IC50.
The mark [9] stands for this setting: HAP1, SDMA in-cell western, HAP1 MTAP-intact, read-out: MTAP HAP1 intact IC50.
Where [10] appears, read: PRMT5, MTA as cofactor, read-out: MTA IC50.
[11] abbreviates: PRMT5, SAM as cofactor, read-out: SAM IC50.
[12] abbreviates: PRMT5, no cofactor, read-out: No Cofactor/rel IC50.

T1 sequence (O14744 whole entry): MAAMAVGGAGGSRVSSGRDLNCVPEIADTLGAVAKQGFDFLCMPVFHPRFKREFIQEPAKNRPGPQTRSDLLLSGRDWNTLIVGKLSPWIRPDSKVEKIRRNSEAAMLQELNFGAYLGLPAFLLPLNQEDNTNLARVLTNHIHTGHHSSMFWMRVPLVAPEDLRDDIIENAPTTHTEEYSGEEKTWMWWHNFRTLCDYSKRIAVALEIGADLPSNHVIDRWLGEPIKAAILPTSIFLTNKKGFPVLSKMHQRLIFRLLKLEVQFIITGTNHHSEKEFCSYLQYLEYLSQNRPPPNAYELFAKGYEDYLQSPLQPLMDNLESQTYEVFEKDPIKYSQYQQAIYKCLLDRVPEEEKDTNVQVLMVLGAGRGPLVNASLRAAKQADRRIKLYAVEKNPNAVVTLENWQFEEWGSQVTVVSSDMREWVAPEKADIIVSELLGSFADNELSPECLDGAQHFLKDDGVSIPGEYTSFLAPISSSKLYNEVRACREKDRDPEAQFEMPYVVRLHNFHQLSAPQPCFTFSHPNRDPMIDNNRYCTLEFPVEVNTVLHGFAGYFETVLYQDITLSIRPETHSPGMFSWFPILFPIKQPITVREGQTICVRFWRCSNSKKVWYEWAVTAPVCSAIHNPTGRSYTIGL
T1 sequence (Q9BQA1 whole entry partner): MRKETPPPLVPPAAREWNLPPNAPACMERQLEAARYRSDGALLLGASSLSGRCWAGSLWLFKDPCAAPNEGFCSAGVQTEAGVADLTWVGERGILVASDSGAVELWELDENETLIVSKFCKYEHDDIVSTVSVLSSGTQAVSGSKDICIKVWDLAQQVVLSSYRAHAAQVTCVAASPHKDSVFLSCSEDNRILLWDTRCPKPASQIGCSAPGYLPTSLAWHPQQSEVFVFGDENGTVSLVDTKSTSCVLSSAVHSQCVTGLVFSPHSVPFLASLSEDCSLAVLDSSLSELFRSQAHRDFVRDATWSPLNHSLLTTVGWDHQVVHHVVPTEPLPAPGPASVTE

With `CCc1cc(NC(=O)C(=O)N2C[C@@H](C)CC[C@@H]2c2ccc(NC3CCN(C)CC3)cc2)cnc1N` [Compound 1112, N-(6-Amino-5-ethyl-3-pyridyl)-2-[(2R,5S)-5-methyl-2-[4-[(1-methyl-4-piperidyl)amino]phenyl]-1-piperidyl]-2-oxo-acetamide], the IC50 is below 1000 nM in assay [1] (setting [7]); below 100 nM in assay [2] (setting [8]); 100 to 1000 nM in assay [3] (setting [9]); below 50 nM in assay [4] (setting [10]); 50 to 500 nM in assay [5] (setting [11]); below 50 nM in assay [6] (setting [12]). In addition, the MTAP intact/deleted ratio entry in assay [2] was “A (an IC50 ratio greater than or equal to 10 fold)”.

As for `Cc1cc(NC(=O)C(=O)N2C[C@@H](C)CC[C@@H]2c2ccc3sc(C4CCN(CCF)CC4)nc3c2)cnc1N` [Compound 1114, N-(6-amino-5-methylpyridin-3-yl)-2-((2R,5S)-2-(2-(1-(2-fluoroethyl)piperidin-4-yl)benzo[d]thiazol-5-yl)-5-methylpiperidin-1-yl)-2-oxoacetamide], the IC50 in assay [1] (setting [7]) was below 1000 nM; in assay [2] (setting [8]) it was below 100 nM; in assay [3] (setting [9]), below 100 nM; in assay [4] (setting [10]), below 50 nM; in assay [5] (setting [11]), below 50 nM; in assay [6] (setting [12]) it was below 50 nM. Also, in assay [2], the MTAP intact/deleted ratio result is “A (an IC50 ratio greater than or equal to 10 fold)”.

For `C[C@H]1CC[C@H](c2ccc3sc(C4CCN(C)CC4)nc3c2)N(C(=O)C(=O)Nc2cnc(N)c(C(F)(F)F)c2)C1` [Compound 1117, N-(6-amino-5-(trifluoromethyl)pyridin-3-yl)-2-((2R,5S)-5-methyl-2-(2-(1-methylpiperidin-4-yl)benzo[d]thiazol-5-yl)piperidin-1-yl)-2-oxoacetamide], the IC50 in assay [1] (setting [7]) was below 1000 nM; in assay [2] (setting [8]), below 100 nM; in assay [3] (setting [9]) it was 100 to 1000 nM; in assay [4] (setting [10]), below 50 nM; in assay [5] (setting [11]), below 50 nM; in assay [6] (setting [12]), below 50 nM. For the same compound, the MTAP intact/deleted ratio entry in assay [2] is given as “A (an IC50 ratio greater than or equal to 10 fold)”.

`CCc1cc(NC(=O)C(=O)N2C[C@@H](C)CC[C@@H]2c2ccc3sc(C4(OC)CCN(C)CC4)nc3c2)cnc1N` [Compound 1118, N-(6-amino-5-ethylpyridin-3-yl)-2-((2R,5S)-2-(2-(4-methoxy-1-methylpiperidin-4-yl)benzo[d]thiazol-5-yl)-5-methylpiperidin-1-yl)-2-oxoacetamide]: the IC50 was below 1000 nM in assay [1] (HAP1, read-out: HAP1 MTAP deleted viability); below 100 nM in assay [2] (HAP1, read-out: HAP1 MTAP deleted IC50); below 100 nM in assay [3] (HAP1, read-out: MTAP HAP1 intact IC50); below 50 nM in assay [4] (MTA IC50, PRMT5, MTA as cofactor); below 50 nM in assay [5] (SAM IC50, PRMT5, SAM as cofactor); below 50 nM in assay [6] (No Cofactor/rel IC50, PRMT5, no cofactor). Besides, the MTAP intact/deleted ratio entry in assay [2] is recorded as “A (an IC50 ratio greater than or equal to 10 fold)”.

For `Cc1cc(NC(=O)C(=O)N2C[C@@H](C)CC[C@@H]2c2ccc3sc(C4CN(C)C4)nc3c2)cnc1C` [Compound 1123, N-(5,6-dimethylpyridin-3-yl)-2-((2R,5S)-5-methyl-2-(2-(1-methylazetidin-3-yl)benzo[d]thiazol-5-yl)piperidin-1-yl)-2-oxoacetamide], the IC50 in assay [1] (setting [7]) was below 1000 nM; in assay [2] (setting [8]), below 100 nM; in assay [3] (setting [9]) it was 100 to 1000 nM; in assay [4] (setting [10]) it was below 50 nM; in assay [5] (setting [11]) it was below 50 nM; in assay [6] (setting [12]) it was below 50 nM. Also, the MTAP intact/deleted ratio result in assay [2] is listed as “A (an IC50 ratio greater than or equal to 10 fold)”.

In the case of `CCc1cc(NC(=O)C(=O)N2C[C@@H](C)CC[C@@H]2c2ccc3sc(C4CCN(CCC(F)(F)F)CC4)nc3c2)cnc1N` [Compound 1124, N-(6-amino-5-ethylpyridin-3-yl)-2-((2R,5S)-5-methyl-2-(2-(1-(3,3,3-trifluoropropyl)piperidin-4-yl)benzo[d]thiazol-5-yl)piperidin-1-yl)-2-oxoacetamide], the IC50 was below 1000 nM in assay [1] (setting [7]); below 100 nM in assay [2] (setting [8]); below 100 nM in assay [3] (setting [9]); below 50 nM in assay [4] (setting [10]); 50 to 500 nM in assay [5] (setting [11]); below 50 nM in assay [6] (setting [12]). In addition, the MTAP intact/deleted ratio entry in assay [2] is “B (an IC50 ratio greater than or equal to 3 fold but lower than 10 fold)”.
